Data taken from US4585773A, “Isoindolinyl-alkyl-piperazines” (Bristol-Myers Company, priority 1984, dated 1986).
Counter-ions that a name gives are not always drawn. Like-named read-outs stand apart in the source and are kept apart here.

How the values were obtained:
[1] = conscious rat diuretic screen of Lipschitz (Table I); format: in vivo, rat (female Sprague Dawley; male Okamoto-Aoki); details: female Sprague Dawley rats; for response vs control in vivo at 30 mg/kg / response vs control in vivo at 3 mg/kg: Rattus norvegicus, po
Description: With respect to diuretic utility there can be mentioned the conscious rat diuretic screen of Lipschitz, et al. (J. Pharmacol. Exp. Therap. 79, 97-110 (1943)). In this test, dose response assays of diuretic, natruiretic and kaliuretic activity are determined by oral administration of the test substance. The compounds synthesized in Examples I-XI were tested for diuretic […]. The compound of Example I was tested as its monohydrochloride 2-propanolate hydrate, i.e. as C22 […] ClN4 O4 S.HCl. 0.2(CH3)2 CHOH.0.15H2 O. Testing was carried out by the diuretic screen of Lipschitz, et al. described previously. In Table I below Volume Ratio is the ratio of total volume excreted for the test comuound compared to the total volume excreted for the control, Na^+ Ratio is the Na^+ excreted for the test compound compared to the Na^+ excreted for the control, K^+ Ratio is the K^+ excreted for the test compound compared to the K^+ excreted for the control. Female Sprague Dawley rats were used in Test Nos. 1, 2, 6, 7, 11-29. Male Okamoto-Aoki rats were used in Test Nos. 3-5 and 8-10 and testing for antihypertensive activity was carried out simultaneously on the Test Nos. 3-5 rats. In some instances, compounds were retested at the same dose level.

[2] = test system: Spontaneously Hypertensive rat; experiment: antihypertensive activity, Spontaneously Hypertensive Rat (Table II); format: in vivo; details: for antihypertensive effect (in words): conclusion from Table II (SHR, and DOCA for Examples I-IV)
Description: Spontaneously Hypertensive Rat Male rats weighing 300-400 g, previously conditioned to the procedure, are prewarmed in a heating chamber (30° C.) for 10-20 min. and subsequently restrained in a wire holder at that temperature. Systolic blood pressure and heart rate are measured by the tailcuff technique using a pneumatic pulse transducer and a biotachometer before, and 2, 4, and 24 hours after oral administration of vehicle (0.25% Methocel in water) or test compounds suspended in vehicle at a dose volume equivalent to 5 ml/kg. Blood pressure and heart rate data are reported as changes from zero-hour measurements with vehicle control groups run periodically to confirm that the vehicle has no effect. Testing was carried out on the compounds of Examples I-XII for antihypertensive activity. In the case of all the compounds testing was carried out on the Spontaneously Hypertensive rat as described hereinbefore. In the case of the compounds of Examples I-IV testing was also carried out on the DOCA-salt Hypertensive Rat. The compound of Example I was tested as its monochloride 2-propanolate hydrate, i.e. as C22 […] ClN4 O4 S.HCl.0.2(CH3)2 CHOH.0.15H2 O in Tests 1-5; and as the 3/4 mole hydrochloride, i.e. C22 […] ClN4 O4 S: 3/4 HCl in Tests 3a, 4a, 5a-5d. Test results are set forth in Table II below wherein SHR stands for Spontaneously Hypertensive rat, DOCA stands for DOCA-salt Hypertensive Rat, ΔBP stands for the change in systolic blood pressure in mm Hg, ΔHR stands for the change in mean heart rate in beats per minute and the times set forth are the times after dosing. A peak change in ΔBP of more than 20 is considered as indicating activity.

[3] = test system: DOCA-salt Hypertensive Rat; experiment: antihypertensive activity, DOCA-salt Hypertensive Rat (Table II); format: in vivo; details: DOCA
Description: DOCA-salt Hypertensive Rat
Male rats initially weighing 80-100 g, are made hypertensive by surgically implanting two 50 mg pellets of deoxycorticosterone acetate (DOCA) under the skin of the abdomen of each rat and providing 1% saline ad libitum. After three weeks, the 1% saline is replaced with distilled water. One week later, animals are anesthetized with methoxyflurane and a catheter advanced into the aorta via the left common corotid artery to record mean arterial blood pressure (MABP) and heart rate. The heparin-filled catheter is passed beneath the skin and exteriorized behind the head. Two days later, MABP and heart rate are determined before and four hours after oral administration of vehicle (0.25% Methocel in 0.9% saline) or test compound suspended in vehicle at a dose volume equivalent to 5 ml/kg.
Testing was carried out on the compounds of Examples I-XII for antihypertensive activity. In the case of all the compounds testing was carried out on the Spontaneously Hypertensive rat as described hereinbefore. In the case of the compounds of Examples I-IV testing was also carried out on the DOCA-salt Hypertensive Rat. The compound of Example I was tested as its monochloride 2-propanolate hydrate, i.e. as C22 H27 ClN4 O4 S.HCl.0.2(CH3)2 CHOH.0.15H2 O in Tests 1-5; and as the 3/4 mole hydrochloride, i.e. C22 H27 ClN4 O4 S: 3/4 HCl in Tests 3a, 4a, 5a-5d. Test results are set forth in Table II below wherein SHR stands for Spontaneously Hypertensive rat, DOCA stands for DOCA-salt Hypertensive Rat, ΔBP stands for the change in systolic blood pressure in mm Hg, ΔHR stands for the change in mean heart rate in beats per minute and the times set forth are the times after dosing. A peak change in ΔBP of more than 20 is considered as indicating activity.

[4] = test system: α blocking activity (phenylephrine); experiment: in vivo α blocking activity, phenylephrine (PE) as α-agonist (Table III); set-up: species or system rat; ED50: unit not given beside the values; details: for in vivo α blocking activity (in words): conclusion from Table III
Description: In this example the compounds of Examples I (modified), II, III, V, VI, VII, VIII, IX and XI were tested in rats for in vivo α blocking activity according to methodology described at page 312 of Deitchman, et al., Journal of Pharmacological Methods, 3, 311-321 (1980). In this test phenylephrine (PE below) or norepinephrine (NE below) was administered as an α-agonist to the rats before and after dosing with the test drug and the average interpolated dose or PE/NE effecting a 50 mm Hg increase in mean arterial blood pressure was determined. Table III below records the results. In such Table, ED50 stands for such average interpolated dose and Average Dose Shift stands for the average ratio of ED50 after drug administration to ED50 before drug administration. The compound of Example I was tested as its monochloride 2-propanolate hydrate, i.e. as C22 H27 ClN4 O4 S.HCl 0.2(CH3)2 CHOH.0.15H2 O in Tests 1-5 and as the 3/4 mole hydrochloride, i.e. C22 H27 ClN 4 O4 S.3/4HCL in Tests 2a and 3a. The route was intravenous except in the case of the runs of Test Nos. 2a, 3, 3a, 26-29 the route was oral.

α1 = experiment: in vitro α1 binding, [3H]WB-4101 (Table IV); details: [3H]WB-4101, brain tissue, 50 mM Hepes.KOH, pH 7.4; read-out: α1 Binding IC50
Description: (§1) In this Example the compounds of Examples I-XI were tested in vitro for α1 and α2 binding. The compound of Example I was tested as its monochloride 2-propanolate hydrate, i.e. as C22 […] CLN4 O4 S .HCl.0.2(CH3)2 CHOH 0.15H2 O. In the testing specific brain tissues were prepared as sources of binding sites. Aliquots of the washed members are incubated with a low concentration of […]. After incubation at suitable temperature, the reaction mixture is treated to separate the membrane-bound radioligand Radioactivity is measured. Linear regression analysis of the probit value for the percent of binding occurring in the presence of varying concentrations of the compound of interest plotted against the concentration of the compound yields concentrations which inhibit 50% specific binding, the IC50. The assay buffer is 50 mM Hepes.KOH, pH 7.4. The ligand is [^3 H]WB-4101 from New England Nuclear for α1 and [^3 H]Clonidine from New England Nuclear for α2. The results are considered against phentolamine methanesulfonate (Reference) which is considered a good α-binder.

α2 = experiment: in vitro α2 binding, [3H]Clonidine (Table IV); details: for IC50: [3H]Clonidine, brain tissue, 50 mM Hepes.KOH, pH 7.4, read-out: α2 Binding IC50
Description: as §1

[5] = 30 mg/kg oral, read-out: K+ Ratio
[6] = 30 mg/kg oral, read-out: Na+ Ratio
[7] = 30 mg/kg oral, read-out: Volume Ratio
[8] = 3 mg/kg oral, read-out: K+ Ratio
[9] = 3 mg/kg oral, read-out: Na+ Ratio
[10] = 3 mg/kg oral, read-out: Volume Ratio

Row | SMILES | Urinary Na/K (Test Compound) ([1]; 30 mg/kg oral) | response vs control in vivo at 30 mg/kg [1, 5] [%] | response vs control in vivo at 30 mg/kg [1, 6] [%] | response vs control in vivo at 30 mg/kg [1, 7] [%] | ΔBP 2 hours ([2]; SHR, 30 mg/kg oral) [mm Hg] | ΔBP 4 hours ([2]; SHR, 30 mg/kg oral) [mm Hg] | ΔHR 2 hours ([2]; SHR, 30 mg/kg oral) [beats per minute] | ΔHR 4 hours ([2]; SHR, 30 mg/kg oral) [beats per minute] | antihypertensive effect (in words) [2] | ΔBP 4 hours ([3]; 30 mg/kg oral) [mm Hg] | ΔHR 4 hours ([3]; 30 mg/kg oral) [beats per minute] | in vivo α blocking activity (in words) [4] | ED50 ([4]; iv) | IC50 (α1) [nM] | α2 binding activity (in words) (α2) | IC50 (α2) [nM] | Urinary Na/K (Test Compound) ([1]; 3 mg/kg oral) | response vs control in vivo at 3 mg/kg [1, 8] [%] | response vs control in vivo at 3 mg/kg [1, 9] [%] | response vs control in vivo at 3 mg/kg [1, 10] [%] | other results
1 | NS(=O)(=O)c1cc2c(cc1Cl)CN(CCCN1CCN(c3cccc(Cl)c3)CC1)C2=O [Example II, 6-Chloro-2-[3-[4-(3-chlorophenyl)-1-piperazinyl]propyl]-2,3-dihydro-3-oxo-1H-isoindole-5-sulfonamide hydrochloride hemihydrate] | 3.41 | 129 | 143 | 117 | -23 ± 4 | -18 ± 7 | -18 ± 10 | -4 ± 16 | good antihypertensive effect without significantly affecting heart rate | -33 ± 5 | 22 ± 17 | active as in vivo α blockers | 34.0 | 7.62 | α2 binding activity | 694 |  |  |  |  | Average Dose Shift ([4]; ED50 after/before drug, PE, dose 10, intravenous): > 200
2 | Cc1ccccc1N1CCN(CCCN2Cc3cc(Cl)c(S(N)(=O)=O)cc3C2=O)CC1 [Example IV, 6-Chloro-2,3-dihydro-2-[3-[4-(2-methylphenyl)-1-piperazinyl]propyl]-3-oxo-1H-isoindole-5-sulfonamide] |  | 117 | 121 |  | -48 ± 19 | -53 ± 7 | -36 ± 5 | -22 ± 22 | good antihypertensive effect without significantly affecting heart rate | -79 ± 4 | 18 ± 13 |  |  | 4.16 |  | 1430 | 3.49 | 97 | 123 | 104 | ΔBP 4 hours ([3]; 0.3 mg/kg oral): -8 ± 3 mm Hg; ΔHR 4 hours ([3]; 0.3 mg/kg oral): 13 ± 21 beats per minute; ΔBP 4 hours ([3]; 3 mg/kg oral): -31 ± 7 mm Hg; ΔHR 4 hours ([3]; 3 mg/kg oral): 22 ± 9 beats per minute
3 | Cl.NS(=O)(=O)c1cc2c(cc1Cl)CN(CCCN1CCN(c3ccccc3)CC1)C2=O.O [Example X, 6-chloro-2,3-dihydro-3-oxo-2-[3-(4-phenyl-1-piperazinyl)propyl]-1H-isoindole-5-sulfonamide hydrochloride hydrate] | 2.83 | 157 | 163 | 153 |  |  |  |  | good antihypertensive effect without significantly affecting heart rate |  |  | active as in vivo α blockers | 45.0 | 16 | α2 binding activity | 666 | 3.19 | 121 | 138 | 124 | peak change at 2 hours in ΔBP ([2]; SHR, 30 mg/kg oral): -34 mm Hg; Average Dose Shift ([4]; iv): 13 ± 2
